Columns and labels:
IFNγ = assay: Inhibition of the IFNγ production of peripheral mononuclear blood cells (phytohemagglutinin-stimulated); assay type: cell-based; conditions: human peripheral mononuclear blood cells, 5 μg/mL phytohemagglutinin, 48 hours; read-out: Inhibition of the IFNγ Secretion (IC50)
Experimental: To visualize the effect of the substances on T-cell activation, for example, the measurement of the IFNγ-secretion can be used.
To isolate peripheral mononuclear cells, human whole blood was used (drawing of blood via Na-citrate S-monovettes “Coagulation 9 NC/10 ml”/Sarstedt). The build-up of the blood cells was accomplished with the aid of density gradient centrifuging: For this purpose, 15 ml of Histopaque 1077 (Sigma, Cat. No. H8880) in LEUCOSEP tubes (Greiner, Cat. No. 227290) is introduced and centrifuged for 30 seconds at 1000 g. Then, 15 ml of whole blood is added and centrifuged for 10 minutes at 1000 g. Finally, the upper plasma layer is pipetted off and the subjacent cell layer (peripheral mononuclear blood cells) is transferred in 15 ml sample tubes (Falcon) and then […] several times with 10 ml of HBSS (HANKS Balanced Solution (without Mg2+ and Ca2+), Cat. No. 14175-53). […]
Then the medium was harvested, and the amount of IFNγ was determined quantitatively. The amount of IFNγ was determined with the aid of the ORIGEN technology (IGEN International, Inc., Gaithersburg, Md.). […]

IL-12 HD p70 = assay: Inhibition of IL-12 HD p70 production of peripheral mononuclear blood cells stimulated with LPS and IFNγ; assay type: cell-based, human; conditions: 24 hours; for IC50: Homo sapiens, read-out: Inhibition of IL-12HD Secretion after LPS & IFNg Stimulation IC50
Experimental: (§1) The inhibition of the TNFα and IL-12 HD p70 production is visualized by, for example, measuring TNFα and IL-12 HD p70 in peripheral mononuclear blood cells that are stimulated with lipopolysaccharide (LPS) and interferon gamma (IFNγ).
(§2) To isolate peripheral mononuclear blood cells, human whole blood was used (drawing of blood via Na-Citrate S-monovettes “Coagulation 9 NC/10 ml”/Sarstedt). The build-up of the lymphocytes and monocytes was accomplished with the aid of the density gradient centrifuging: For this purpose, 15 ml of Histopaque-1077 (Sigma, Cat. No. H8880) is introduced into 50 ml LEUCOSEP tubes (Greiner, Cat. No. 227290) and forced downward by centrifuging for 30 seconds at 250 g by the frits that are contained in the tubes. Then, 20 ml of whole blood is added and centrifuged for 15 minutes at 800 g and at room temperature. After centrifuging, the supernatant (plasma and thrombocytes) is pipetted off and discarded, and the subjacent cell layer (lymphocytes and monocytes) is transferred into 50 ml centrifuging tubes (Falcon) and then washed 3× in culture medium VLE RPMI 1640 (Seromed, No. FG1415) (centrifuging in each case for 10 minutes at 250 g, room temperature). Finally, the cell pellet is resuspended in culture medium VLE RPMI 1640 (Seromed, No. FG1415), 10% FCS (Life Technologies, Cat. No. 16000-044, low endotoxin, heat-inactivated for 1 hour, 56° C.), and 50 μg/ml of penicillin-streptomycin solution (Life Technologies, Cat. No.15140-106) and set at 3×10^6 cells/ml after cell counting by means of trypan blue staining. In each case, 100 μl of cell suspension solution was dispersed on 96-hole flat-bottomed cell culture plates (Costar, Product No. 3599). In each case, 100 μl of 3×-concentrated stimulation solution (3 μg/ml of LPS of E. coli Serotype 0127:B8; Sigma, Cat. No. L-4516 and 300 ng/ml of IFNγ 1b, Imukin, Boehringer Ingelheim) was added to it. The substances according to the invention were added at various concentrations as 3×-concentrated substance solution (100 μl/well). The stimulation of the cells was carried out at 37° C. and 5% CO2 over a period of 24 hours. Then, the cell culture supernatant was harvested, and the concentrations of TNFα and IL-12 HD p70 were determined by means of commercially available ELISA Kits of the BioSource International Company (TNF-α EASIA, Cat. No. KAC 1752) and R & D Systems (Quantikine1υ HS IL-12, Cat. No. HS 120).
(§3) The calculated IC50 value corresponds to the concentration of test substance that is required to reach a 50% inhibition of the maximum TNFα- or interleukin 12 HD p70 production.

TNFα [1] = assay: Inhibition of TNFα production of peripheral mononuclear blood cells stimulated with LPS and IFNγ; assay type: cell-based, human; conditions: 24 hours; for IC50: Homo sapiens, read-out: Inhibition of TNF-alpha Secretion after LPS & IFNg Stimulation IC50
Experimental: as §1, §2, §3

microglia = assay: Inhibition of the microglia activation; assay type: cell-based
Description: Compounds that with stimulation with the Aβ-peptide achieve an inhibition of the microglia activity of at least 20% and an inhibition of the cytokine activity of at least 30% are suitable, according to the invention, as microglia inhibitors. The biological properties of the microglia inhibitors can be shown according to the methods that are known to one skilled in the art, for example with the aid of the testing methods that are described below and in WO 01/51473.

IL-10 = assay: Induction of IL-10 production of peripheral mononuclear blood cells; assay type: cell-based, human; conditions: 24 hours; for EC50: Homo sapiens, PHA, read-out: Induction of the IL-10 Secretion after PHA Stimulation EC50
Experimental: The induction of IL-10 production is visualized by, for example, measuring IL-10 in peripheral mononuclear blood cells that are stimulated in phytohemagglutinin (PHA) or lipopolysaccharide (LPS).
To isolate peripheral mononuclear blood cells, human whole blood was used (drawing of blood via Na-Citrate S-monovettes “Coagulation 9 NC/10 ml”/Sarstedt). The build-up of the lymphocytes and monocytes was accomplished with the aid of the density gradient centrifuging: For this purpose, 15 ml of Histopaque-1077 (Sigma, Cat. No. H8880) in 50 ml LEUCOSEP tubes (Greiner, Cat. No. 227290) is introduced and forced downward by centrifuging for 30 seconds at 250 g by the frits that are contained in the tubes. Then, 20 ml of whole blood is added and centrifuged for 15 minutes at 800 g and at room temperature. After centrifuging, the supernatant (plasma and thrombocytes) is pipetted off and discarded, and the subjacent cell layer (lymphocytes and monocytes) in 50 ml centrifuging tubes (Falcon) is transferred and then washed 3× in culture medium VLE RPMI 1640 (Seromed, No. FG1415) (centrifuging in each case for 10 minutes at 250 g, room temperature). Finally, the cell pellet is resuspended in culture medium VLE RPMI 1640 (Seromed, No. FG1415), 10% FCS (Life Technologies, Cat. No. 16000-044, low endotoxin, heat-inactivated for 1 hour, 56° C.), 50 μg/ml of penicillin-streptomycin solution (Life Technologies, Cat. No. 15140-106) and set at 3×10^6 cells/ml after cell counting by means of trypan blue staining. In each case, 100 μl of cell suspension solution was dispersed on 96-hole flat-bottomed cell culture plates (Costar, Product No. 3599). In each case, 100 μl of 3×-concentrated stimulation solution (3 μg/ml of LPS of E. coli Serotype 0127:B8; Sigma, Cat. No. L-4516 or 300 μg/ml of PHA-L, Biochrom KG, Cat. No. M5030) was added to it. The substances according to the invention were added at various concentrations as 3×-concentrated substance solution (100 μl/well). The stimulation of the cells was carried out at 37° C. and 5% CO2 over a period of 24 hours. Then, the cell culture supernatant was harvested, and IL-10 was determined quantitatively. The IL-10 concentration was determined by means of a commercially available ELISA Kit of the BioSource International Company (human IL-10, Cat. No. KHC0101C). The calculated EC50 value corresponds to the concentration of test substance that is required to increase the IL-10 secretion by 50% of the maximum increase.

interleukin 12 = assay: Inhibition of the IL 12 production in LPS-stimulated THP-1 cells; assay type: cell-based; conditions: Homo sapiens, 0.1 μg/ml LPS overnight, read-out: Inhibition of the IL 12 Secretion (IC50)
Experimental: (§4) The inhibition of the cytokine production can be visualized, for example, by measuring TNFα and interleukin 12 in lipopolysaccharide (LPS)-stimulated THP-1 cells.
(§5) For this purpose, 2.5×10^5 THP-1 cells (American Type Culture Company, Rockville, Md.)/ml of RPMI 1640 medium (Life Technologies)/10% FCS (Life Technologies, Cat. No. 10270-106) are grown on 96-hole flat-bottomed cell culture plates (TPP, Product No.9296) (100 μl/hole). The compounds according to the invention are added at various concentrations and pre-incubated for 30 minutes. The pre-dilution of the test substances was performed in the incubation medium. The addition of the test substances is carried out as a 2× concentrated substance solution (100 μl/hole). The stimulation of the cells was carried out overnight at 37° C with 0.1 μg/ml of LPS (Sigma L2630, of E. Coli Serotype 011 1.B4). Then, the medium was harvested, and the amount of TNFα or the amount of interleukin 12 was quantitatively determined. To measure the TNFα, a commercially available TNFα kit of the CIS Bio International Company was used (Product No. 62TNFPEB). The amount of interleukin 12 was implemented with the aid of the ORIGEN technology (IGEN International, Inc., Gaithersburg, Md.). The calculated IC50 value corresponds to the concentration of test substance that is required to reach a 50% inhibition of the maximum TNFα or interleukin 12 production. […]

TNFα [2] = assay: Inhibition of the TNFα production in LPS-stimulated THP-1 cells; assay type: cell-based; conditions: Homo sapiens, 0.1 μg/ml LPS overnight, read-out: Inhibition of the TNFα Secretion (IC50)
Experimental: as §4, §5

IC50 (IFNγ)	IC50 (IL-12 HD p70)	IC50 (TNFα [1])	IC50 (microglia)	EC50 (IL-10)	IC50 (interleukin 12)	IC50 (TNFα [2])	SMILES	Inhibition of IL-12HD Secretion after LPS & IFNg Stimulation Effectiveness (IL-12 HD p70)	Inhibition of TNF-alpha Secretion after LPS & IFNg Stimulation Effectiveness (TNFα [1])	Induction of the IL-10 Secretion after PHA Stimulation Effectiveness (IL-10)
1300 nM	92 nM	650 nM	750 nM	> 1000 nM	2200 nM	3000 nM	Cc1ccc(-n2c(-c3ccccc3)nc3ccc(OCCCCCC(=O)OC(C)C)cc32)cc1 [Substance 1, 6-[[1-(4-Methylphenyl)-2-phenyl-1H-benzimidazol-6-yl]oxy]hexanoic acid-isopropyl ester]	81%	65%	245%
110 nM	30 nM	120 nM	160 nM	180 nM	< 300 nM	150 nM	Cc1ccc(-n2c(-c3ccccc3)nc3ccc(OCCCCCC(=O)O)cc32)cc1 [Substance 2, 6-[[1-(4-Methylphenyl)-2-phenyl-1H-benzimidazol-6-yl]oxy]hexanoic acid]	93%	83%	283%
